Data taken from patent publication US10406146B2, “Heterocyclic compound” (TAKEDA PHARMACEUTICAL COMPANY LIMITED, priority 2015, dated 2019).

Experiments:
Assay type in all cases: biochemical
[1] = biological target: T1, HDAC6 enzyme (Homo sapiens, UniProt Q9UBN7); assay: HDAC6 enzyme inhibitory assay (HDAC-Glo I/II Assay kit); conditions: wells without enzyme = 100% inhibition; for inhibition at 1 µM: read-out: HDAC6 inhibitory rate (%) (1 μM)
T1 construct: transducing full length HDAC1 and HDAC6 genes into Sf-9 insect cells; GST; purchased SignalChem; host or cells: Sf-9 insect cells
T1 sequence (Q9UBN7 1-1215): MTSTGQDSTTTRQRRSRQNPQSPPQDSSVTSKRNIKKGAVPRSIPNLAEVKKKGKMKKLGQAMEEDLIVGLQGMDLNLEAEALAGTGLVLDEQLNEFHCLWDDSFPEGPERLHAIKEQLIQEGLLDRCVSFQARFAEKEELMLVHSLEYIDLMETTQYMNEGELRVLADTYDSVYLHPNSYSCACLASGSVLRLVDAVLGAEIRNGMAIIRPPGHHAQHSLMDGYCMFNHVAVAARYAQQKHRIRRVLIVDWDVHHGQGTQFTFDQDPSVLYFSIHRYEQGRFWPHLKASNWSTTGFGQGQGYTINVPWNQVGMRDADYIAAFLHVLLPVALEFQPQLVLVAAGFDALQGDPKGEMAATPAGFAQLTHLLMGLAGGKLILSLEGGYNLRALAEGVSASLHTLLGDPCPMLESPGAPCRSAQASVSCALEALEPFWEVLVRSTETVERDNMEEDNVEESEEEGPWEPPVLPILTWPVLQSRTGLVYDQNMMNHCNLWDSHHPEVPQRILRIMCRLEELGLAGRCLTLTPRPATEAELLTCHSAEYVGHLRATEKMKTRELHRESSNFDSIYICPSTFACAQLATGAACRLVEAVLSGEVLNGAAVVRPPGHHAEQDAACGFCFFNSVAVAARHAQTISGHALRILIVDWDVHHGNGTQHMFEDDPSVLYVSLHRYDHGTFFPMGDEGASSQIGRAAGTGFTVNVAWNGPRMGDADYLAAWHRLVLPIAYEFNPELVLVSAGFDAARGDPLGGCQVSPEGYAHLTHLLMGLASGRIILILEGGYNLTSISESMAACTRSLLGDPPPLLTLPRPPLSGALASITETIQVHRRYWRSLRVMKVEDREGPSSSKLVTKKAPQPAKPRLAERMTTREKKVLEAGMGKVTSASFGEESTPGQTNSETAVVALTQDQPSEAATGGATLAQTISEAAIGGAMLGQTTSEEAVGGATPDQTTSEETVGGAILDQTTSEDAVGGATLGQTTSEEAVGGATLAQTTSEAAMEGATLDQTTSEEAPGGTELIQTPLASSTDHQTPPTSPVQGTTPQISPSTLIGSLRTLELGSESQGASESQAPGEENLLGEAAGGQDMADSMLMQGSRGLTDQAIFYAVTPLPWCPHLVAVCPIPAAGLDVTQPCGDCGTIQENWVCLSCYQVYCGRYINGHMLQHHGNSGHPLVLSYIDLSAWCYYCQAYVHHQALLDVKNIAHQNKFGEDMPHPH
Procedure, shortened: (§1)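 Luminescence readout (HDAC-Glo I/II) after 20 min RT reaction of GST-purified full-length HDAC1 or HDAC6 (Sf-9 expressed) with substrate-developer; enzyme and compound preincubated 60 min RT; buffer 24 mM Tris-HCl pH 7.5, 0.6 mM glutathione, 0.01% Tween-20; no-enzyme wells = 100% inhibition.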

[2] = biological target: T2, HDAC1 enzyme (Homo sapiens, UniProt Q13547); assay: HDAC1 enzyme inhibitory assay (HDAC-Glo I/II Assay kit); conditions: wells without enzyme = 100% inhibition; for inhibition at 1 µM: read-out: HDAC1 inhibitory rate (%) (1 μM)
T2 construct: transducing full length HDAC1 and HDAC6 genes into Sf-9 insect cells; GST; purchased SignalChem; host or cells: Sf-9 insect cells
Procedure, shortened: as §1

[3] = biological target: T3, HDAC9 enzyme (Homo sapiens, UniProt Q9UKV0); assay: HDAC9 enzyme inhibitory assay (HDAC-Glo class IIa); conditions: wells without enzyme = 100% inhibition; for inhibition at 1 µM: read-out: HDAC9 inhibitory rate (%) (1 μM)
T3 construct: transducing full length HDAC9 gene into Sf-9 insect cells; made in house; host or cells: Sf-9 insect cells
Procedure, shortened: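 Luminescent HDAC-Glo class IIa readout after a 20 min room-temperature reaction; relative inhibition referenced to enzyme-free wells as 100%. Test compound first preincubated 60 min with Sf-9-expressed, Ni-NTA-purified full-length HDAC9 in pH 7.5 Tris buffer containing 135 mM NaCl, 0.6 mM glutathione and 0.01% Tween-20.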

T2 sequence (Q13547 whole entry): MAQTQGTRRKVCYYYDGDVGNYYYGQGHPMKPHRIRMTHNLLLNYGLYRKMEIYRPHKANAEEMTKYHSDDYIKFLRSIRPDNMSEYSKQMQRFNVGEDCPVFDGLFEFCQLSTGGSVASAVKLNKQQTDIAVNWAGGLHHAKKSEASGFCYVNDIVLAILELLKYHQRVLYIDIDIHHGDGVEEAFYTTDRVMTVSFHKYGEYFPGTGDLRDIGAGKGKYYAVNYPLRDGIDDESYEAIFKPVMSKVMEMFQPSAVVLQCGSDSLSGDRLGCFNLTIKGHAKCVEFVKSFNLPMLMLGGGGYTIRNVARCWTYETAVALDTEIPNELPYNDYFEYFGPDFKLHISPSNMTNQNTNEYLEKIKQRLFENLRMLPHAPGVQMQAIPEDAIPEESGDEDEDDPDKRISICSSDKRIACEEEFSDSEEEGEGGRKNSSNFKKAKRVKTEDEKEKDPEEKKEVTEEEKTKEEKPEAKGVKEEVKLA
T3 sequence (Q9UKV0 whole entry, species assumed): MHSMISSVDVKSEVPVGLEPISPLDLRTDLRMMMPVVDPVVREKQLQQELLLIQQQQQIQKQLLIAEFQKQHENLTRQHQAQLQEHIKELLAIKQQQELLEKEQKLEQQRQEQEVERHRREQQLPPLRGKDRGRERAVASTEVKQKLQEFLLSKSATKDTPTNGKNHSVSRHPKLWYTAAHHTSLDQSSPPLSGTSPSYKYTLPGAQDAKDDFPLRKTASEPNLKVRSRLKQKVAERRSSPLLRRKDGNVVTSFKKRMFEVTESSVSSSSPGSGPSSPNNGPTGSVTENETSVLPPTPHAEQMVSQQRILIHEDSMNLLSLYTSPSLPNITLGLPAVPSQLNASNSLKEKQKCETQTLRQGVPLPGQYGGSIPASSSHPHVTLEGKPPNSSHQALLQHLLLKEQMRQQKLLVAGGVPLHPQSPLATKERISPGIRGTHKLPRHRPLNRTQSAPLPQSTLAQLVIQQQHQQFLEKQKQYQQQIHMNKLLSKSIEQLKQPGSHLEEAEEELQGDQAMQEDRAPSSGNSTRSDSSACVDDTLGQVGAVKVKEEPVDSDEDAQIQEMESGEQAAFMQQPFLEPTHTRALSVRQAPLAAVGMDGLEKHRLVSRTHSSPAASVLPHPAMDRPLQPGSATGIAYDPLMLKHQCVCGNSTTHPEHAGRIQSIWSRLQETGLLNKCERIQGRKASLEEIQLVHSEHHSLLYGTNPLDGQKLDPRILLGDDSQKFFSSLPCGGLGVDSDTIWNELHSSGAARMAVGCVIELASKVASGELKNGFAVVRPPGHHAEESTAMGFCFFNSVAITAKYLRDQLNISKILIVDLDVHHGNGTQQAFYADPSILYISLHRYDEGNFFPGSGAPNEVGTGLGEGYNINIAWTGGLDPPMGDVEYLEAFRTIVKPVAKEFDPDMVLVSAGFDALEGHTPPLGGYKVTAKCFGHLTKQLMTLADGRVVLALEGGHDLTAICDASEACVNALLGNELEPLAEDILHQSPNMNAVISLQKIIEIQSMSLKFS

Compound	inhibition at 1 µM [1]	inhibition at 1 µM [2]	inhibition at 1 µM [3]	HDAC6 inhibitory rate (%) (1 μM) [1]	HDAC1 inhibitory rate (%) (1 μM) [2]	HDAC9 inhibitory rate (%) (1 μM) [3]
Cc1ccnc(C(=O)NCC2CCCCN2C(=O)Nc2ccc(-c3noc(C(F)(F)F)n3)cc2)c1 (stereo not drawn) [Example 56, 4-methyl-N-((1-((4-(5-(trifluoromethyl)-1,2,4-oxadiazol-3-yl)phenyl)carbamoyl)piperidin-2-yl)methyl)pyridine-2-carboxamide]	4%	25%	83%	–	–	–
O=C(NCC1COCCN1C(=O)Nc1ccc(-c2noc(C(F)(F)F)n2)cc1)c1ccccc1 (stereo not drawn) [Example 1, 3-((benzoylamino)methyl)-N-(4-(5-(trifluoromethyl)-1,2,4-oxadiazol-3-yl)phenyl)morpholine-4-carboxamide]	6%	62%	98%	–	–	–
CN(C)c1cccc(C(=O)NCC2CCCCN2C(=O)Nc2ccc(-c3noc(C(F)(F)F)n3)cc2)c1 (stereo not drawn) [Example 28, 2-(((3-(dimethylamino)benzoyl)amino)methyl)-N-(4-(5-(trifluoromethyl)-1,2,4-oxadiazol-3-yl)phenyl)piperidine-1-carboxamide]	2%	4%	86%	–	–	–
O=C(NCC1CCCCN1C(=O)Nc1ccc(-c2noc(C(F)(F)F)n2)cc1)c1ccc(Cl)cc1 (stereo not drawn) [Example 9, 2-(((4-chlorobenzoyl)amino)methyl)-N-(4-(5-(trifluoromethyl)-1,2,4-oxadiazol-3-yl)phenyl)piperidine-1-carboxamide]	3%	4%	94%	–	–	–
Cn1cnc(C(=O)NCC2CCCCN2C(=O)Nc2ccc(-c3noc(C(F)(F)F)n3)cc2)c1 (stereo not drawn) [Example 40, 2-((((1-methyl-1H-imidazol-4-yl)carbonyl)amino)methyl)-N-(4-(5-(trifluoromethyl)-1,2,4-oxadiazol-3-yl)phenyl)piperidine-1-carboxamide]	3%	11%	76%	–	–	–
O=C(NCC1CCCCN1C(=O)Nc1ccc(-c2noc(C(F)(F)F)n2)cc1)Nc1ccccc1 (stereo not drawn) [Example 54, 2-(((phenylcarbamoyl)amino)methyl)-N-(4-(5-(trifluoromethyl)-1,2,4-oxadiazol-3-yl)phenyl)piperidine-1-carboxamide]	6%	17%	89%	–	–	–
O=C(NCC1CCCCN1C(=O)Nc1ccc(-c2noc(C(F)(F)F)n2)cc1)c1cccc(O)c1 (stereo not drawn) [Example 26, 2-(((3-hydroxybenzoyl)amino)methyl)-N-(4-(5-(trifluoromethyl)-1,2,4-oxadiazol-3-yl)phenyl)piperidine-1-carboxamide]	2%	42%	94%	–	–	–
Cn1nc(C(=O)NCC2CCCCN2C(=O)Nc2ccc(-c3noc(C(F)(F)F)n3)cc2)c2ccccc21 (stereo not drawn) [Example 42, 1-methyl-N-((1-((4-(5-(trifluoromethyl)-1,2,4-oxadiazol-3-yl)phenyl)carbamoyl)piperidin-2-yl)methyl)-1H-indazole-3-carboxamide]	3%	8%	71%	–	–	–
O=C(NCC1CCCCN1C(=O)Nc1ccc(-c2noc(C(F)(F)F)n2)cc1)c1ccc(O)cc1 (stereo not drawn) [Example 27, 2-(((4-hydroxybenzoyl)amino)methyl)-N-(4-(5-(trifluoromethyl)-1,2,4-oxadiazol-3-yl)phenyl)piperidine-1-carboxamide]	3%	37%	93%	–	–	–
O=C(NCC1CCCCN1C(=O)Nc1ccc(-c2noc(C(F)(F)F)n2)cc1)c1ccccc1 (stereo not drawn) [Example 2, 2-((benzoylamino)methyl)-N-(4-(5-(trifluoromethyl)-1,2,4-oxadiazol-3-yl)phenyl)piperidine-1-carboxamide]	10%	80%	90%	–	–	–
O=C(NCC1CCCCN1C(=O)Nc1ccc(-c2noc(C(F)(F)F)n2)cc1)c1cccc(F)c1 (stereo not drawn) [Example 5, 2-(((3-fluorobenzoyl)amino)methyl)-N-(4-(5-(trifluoromethyl)-1,2,4-oxadiazol-3-yl)phenyl)piperidine-1-carboxamide]	4%	35%	95%	–	–	–
Cn1nc(C(=O)NCC2CCCCN2C(=O)Nc2ccc(-c3noc(C(F)(F)F)n3)cc2)cc1C(F)(F)F (stereo not drawn) [Example 59, 2-((((1-methyl-5-(trifluoromethyl)-1H-pyrazol-3-yl)carbonyl)amino)methyl)-N-(4-(5-(trifluoromethyl)-1,2,4-oxadiazol-3-yl)phenyl)piperidine-1-carboxamide]	1%	10%	63%	–	–	–
Cc1ccc(C(=O)NCC2CCCCN2C(=O)Nc2ccc(-c3noc(C(F)(F)F)n3)cc2)cc1 (stereo not drawn) [Example 12, 2-(((4-methylbenzoyl)amino)methyl)-N-(4-(5-(trifluoromethyl)-1,2,4-oxadiazol-3-yl)phenyl)piperidine-1-carboxamide]	5%	-16%	67%	–	–	–
O=C(NCC1CCCCN1C(=O)Nc1ccc(-c2noc(C(F)(F)F)n2)cc1)c1ccnc(O)c1 (stereo not drawn) [Example 58]	–	–	–	3%	25%	87%
O=C(NCC1CCCCN1C(=O)Nc1ccc(-c2noc(C(F)(F)F)n2)cc1)c1cccc(Cl)c1 (stereo not drawn) [Example 8, 2-(((3-chlorobenzoyl)amino)methyl)-N-(4-(5-(trifluoromethyl)-1,2,4-oxadiazol-3-yl)phenyl)piperidine-1-carboxamide]	2%	-7%	68%	–	–	–
O=C(NCC1CCCCN1C(=O)Nc1ccc(-c2noc(C(F)(F)F)n2)cc1)c1ccc(Cl)c(Cl)c1 (stereo not drawn) [Example 32, 2-(((3,4-dichlorobenzoyl)amino)methyl)-N-(4-(5-(trifluoromethyl)-1,2,4-oxadiazol-3-yl)phenyl)piperidine-1-carboxamide]	0%	-10%	62%	–	–	–
